The values that follow come from patent US20210317092A1 (BAYER PHARMA AKTIENGESELLSCHAFT, priority 2016, published 2021).

Experiment [1] addresses T1, human Bradykinin B1 receptor (Homo sapiens, UniProt P46663).
T1 construct: host or cells: CHO-K1
T1 sequence (P46663 1-353): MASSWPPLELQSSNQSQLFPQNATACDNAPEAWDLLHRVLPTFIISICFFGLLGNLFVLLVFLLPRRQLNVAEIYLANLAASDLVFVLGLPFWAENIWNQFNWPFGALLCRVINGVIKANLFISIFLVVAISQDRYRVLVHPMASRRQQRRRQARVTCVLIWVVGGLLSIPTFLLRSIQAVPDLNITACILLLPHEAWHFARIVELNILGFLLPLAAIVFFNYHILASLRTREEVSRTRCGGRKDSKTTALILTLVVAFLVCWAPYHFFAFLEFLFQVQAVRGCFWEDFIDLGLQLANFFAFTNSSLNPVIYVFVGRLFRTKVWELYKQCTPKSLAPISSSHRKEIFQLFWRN
Nature of the experiment: Calcium flux Assay (FLIPR) with recombinant CHO-K1 cells expressing human Bradykinin B1 receptor, in presence (hB1 IC50) or absence (hB1 free IC50) of 0.1% BSA. The experiment is classed as cell-based. (In general: A change in cytosolic calcium serves as a functional read-out for many receptors and channels.)

The subject of the next experiment is IL-6 secretion. Nature of the experiment: Inhibitory activity on Bradykinin B1 agonist-induced secretion of IL-6 in human IMR-90 cells. The class given is cell-based. Conditions: 30 min compound, stimulated with 0.1 μM Lys-[Des-Arg9]Bradykinin and 0.1 μM Sar-[D-Phe8]-des-Arg9-Bradykinin for 5 hours. From the text:
Inhibitory activity on Bradykinin B1 agonist-induced secretion of IL-6 and IL-8 in human IMR-90 cells
The effect of the compound examples on secretion of the cytokine IL-6 and IL-8 has been investigated in the human foetal lung fibroblast IMR-90 cell line. Here the induction of the cytokine secretion was induced by the Bradykinin B1 agonists Lys-[Des-Arg9]Bradykinin (CAS 71800-36-7, Tocris Bioscience) and Sar-[D-Phe8]-des-Arg9-Bradykinin (CAS 126959-88-4, Tocris Bioscience) leading to the activation of the Bradykinin B1-driven signalling pathway. This effect is indicative for a strong anti-inflammatory mode of action in kinin driven inflammation.
IMR-90 cells were cultured in Eagle's Minimum Essential Medium (EMEM) containing 2 mM L-glutamine, 1 g/L glucose, 1.5 g/L NaHCO3, 1 mM sodium pyruvate and non-essential amino acids (ATCC, 30-2003™) supplemented with 10% FBS (Biochrom, S0615) and 50 U/mL Penicillin, 50 μg/mL Streptomycin (PAA, P11-010). The assay was performed in EMEM and a cell density of […] IMR-90 cells/96-well. The compound examples have been serial diluted in 100% DMSO and evaluated at 8 different concentrations within the range of 3 nM and 10 μM and a final DMSO concentration of 0.4%. The IMR-90 cells have been incubated with the respective concentration of the compound for 30 min. The enhanced secretion of IL-6 and IL-8 was induced by the stimulation of these cells with 0.1 μM Lys-[Des-Arg9]Bradykinin (Tocris, catalogue no. 3225) and 0.1 μM Sar-[D-Phe8]-des-Arg9-Bradykinin (Tocris, catalogue no. 3230) for 5 hours at 37° C. and 5% C02. Further, cells have been treated with Lys-[Des-Arg9]Bradykinin and Sar-[D-Phe8]-des-Arg9-Bradykinin as neutral control and with 0.1% DMSO as inhibitor control. The amount of IL-6 and IL-8 in the supernatant was determined using the Human Prolnflammatory Panel II (4-Plex) (MSD, K15025B) according to manufacturer's instruction. Briefly, supernatants were added onto assay plates and incubated at room temperature for 1-2 h with vigorous shaking at 600 rpm. Detection antibodies were then added onto the supernatants and incubated at room temperature for an additional 1-2 h with vigorous shaking at 600 rpm. Plates were washed three times with phosphate-buffered saline (PBS; 137 mM NaCl, 2.7 mM KCl, 6.5 mM Na2HPO4, 1.7 mM KH2P04) containing 0.05% Tween-20 (Bio-Rad, 161-0781) and electrochemiluminescence detected using the MSD Sector Imager 6000 plate reader. The cell viability was measured using the CellTiter-Glo Luminescent Assay (Promega, G7571) following the manufacturers protocol. Briefly, the CellTiter-Glo Reagent was diluted with PBS (1:1) and added directly to cells. After incubation and shaking for 10 minutes luminescent signal was measured which is proportional to the amount of ATP present.
The effect of the compound on the amount of secreted cytokine has been calculated as 100/(measured cytokine concentration of neutral control-measured cytokine concentration of inhibitor control)*(measured cytokine concentration of compound dose-measured cytokine concentration of inhibitor control). IC50 values are determined using 4-parameter-fit.
The compound examples were tested in triplicates per plate and the inhibitory activity was determined as the relation between neutral and inhibitor control in percent. IC50 values were calculated using the 4-parameter logistic model.

[2] abbreviates: in absence of 0.1% BSA, read-out: hB1 free IC50.
Setting [3] is: in presence of 0.1% BSA, read-out: hB1 IC50.

Like-named read-outs stand apart in the source and are kept apart here.

`COc1ccc(-c2ccc(NC(=O)C3(c4cccc(Cl)c4)CC3)cc2-c2nnn[nH]2)cc1OC` [Example 1, 1-(3-Chlorophenyl)-N-[3′,4′-dimethoxy-2-(1H-tetrazol-5-yl)biphenyl-4-yl]cyclopropanecarboxamide]: the IC50 (usually the point on the concentration scale where inhibition reaches its midpoint) in experiment [1] (setting [2]) came to 3.35 nM; in experiment [1] (setting [3]), 22.6 nM; in the experiment with IL-6 secretion, 225 nM.

Turning to `CCOc1ccc(-c2ccc(NC(=O)C3(c4cccc(Cl)c4)CC3)cc2-c2nnn[nH]2)cn1` [Example 253, 1-(3-Chlorophenyl)-N-[4-(6-ethoxypyridin-3-yl)-3-(1H-tetrazol-5-yl)phenyl]cyclopropanecarboxamide], the values for the IC50 (in experiment [1] (setting [2]); in experiment [1] (setting [3]); in the experiment on IL-6 secretion) were 16.1 nM, 33.5 nM and 57 nM, respectively.
